Common to all, as to assay type: cell-based
For series [1], the system named is HPV16 PsV containing GFP11-tagged L2. The series can be described thus: Split GFP assay with peptide, HaCaT/GFP1-10NES cells. The conditions noted are these: 30 μM, MOI of 2000, three h.p.i. The procedure: FIG. 26A depicts clonal HaCaT/GFP1-10NES cells expressing cytosolic GFP1-10 infected at MOI of 2000 with untagged HPV16 or with HPV16 PsV containing GFP11-tagged L2 in the absence or presence of 30 μM P16/16. Three h.p.i., cells were stained with Hoescht 33342 to visualize nuclei (blue) and examined by confocal microscopy for GFP fluorescence. FIG. 26B the corrected total cellular fluorescence (CTCF) of each cell was calculated and plotted in arbitrary units from three independent experiments. n.s., not significant. FIG. 26C depicts HaCaT/GFP-10NES cells infected as described in FIG. 26A with wild-type HPV16 PsV in the presence of 30 μM P16/16 or in its absence for three hours, followed by removal of PsV and incubation with medium containing peptide for an additional 48 hours. Cells were assessed by flow cytometry to determine reporter protein expression. Infectivity was normalized with that in the absence of peptide. **, p<0.01.
To determine if the cytoplasmic protrusion of L2 of PsV is inhibited by peptides, the split GFP assay was performed. 3×104 clonal HaCaT/GFP1-10NES expressing GFP1-10NES in the cytoplasm were seeded in eight-chambered glass slides and incubated with peptides for an hour prior to infection at MOI of ˜2000 with HPV16 PsV containing wild-type L2 or L2 containing inserted GFP11. […]

The subject of the next series is HeLa-S3 cells. Description: CellTiter-Fluor viability assay. The conditions noted are these: 14 μM for 4 or 24 hours. The procedure: HeLa-S3 cells were incubated with medium, medium plus vehicle, or medium plus 14 μM P16/16 for 4 or 24 hours. Viability assay was performed by using the CellTiter-Fluor viability assay protocol (Promega, Cat #G6082). Briefly, an equal volume of CellTiter-Fluor reagent was added to each well without removing the medium, mixed briefly, then incubated for one hour at 37° C. Fluorescence was measured by using a GloMax Explorer Multimode Microplate Reader (380-400 nmEx/505 nmEm). n.s., not significant.

For the next series, the system named is HPV5 PsV. Description: Peptide inhibition of HPV5 PsV infection of HeLa-S3 cells, flow cytometry for HcRed. Particulars: 14 μM peptide, MOI of one, 48 h.p.i. An excerpt: FIG. 18A (top) depicts sequences of L2 peptides. […] Amino acid substitutions in the CPP or RBS mutant peptides are shown in orange and blue, respectively. Bottom: RBS and flanking sequences of indicated HPV L2 proteins or DMT1-II. FIG. 18B depicts an inhibitory dose-response curve for P16/16 peptide. 5×10^4 HeLa-S3 in 24-well plates were pretreated with various concentrations of P16/16 for one hour prior to infection with HPV pseudovirus (PsV) at multiplicity of infection (MOI) of 1. Peptide was left in the medium for the duration of the experiment. Cells were assessed by flow cytometry to determine the fraction of cells expressing reporter protein HcRed at 48 hours post-infection (h.p.i.). […] Forty-eight h.p.i., cells were assessed by flow cytometry to determine fraction of cells expressing reporter protein HcRed. […] HaCaT keratinocytes were infected at MOI of 1 with HPV16 PsV in the presence and absence of 14 μM P16/16, and infectivity was assessed 48 h.p.i. by flow cytometry for HcRed fluorescence. […] Successful infection by HPV16 and HPV16 PsV was assessed by quantitative reverse transcription-PCR (qRT-PCR) for expression of HPV early region and HcRed mRNA, respectively, and normalized to infection by the cognate virus in the absence of peptide. Background signal determined with non-cognate primers was <0.01%. […]

Another series relates to SV40. The series can be described thus: SV40 infection of HeLa-S3 cells, flow cytometry for large T antigen. The conditions noted are these: 14 μM, MOI of ~1, 48 h.p.i. The method, then:
HeLa-S3 cells were treated with 14 μM P16/16 peptide or vehicle for one hour then infected with SV40 at MOI of ˜1. Forty-eight h.p.i., cells were washed, fixed, and permeabilized with cold methanol for 30 min. Cells were stained for intracellular SV40 large T antigen with fluorophore-conjugated monoclonal antibody PAb101, followed by flow cytometry. The histograms show number of cells and […] fluorescence in the absence or presence of peptide. Traces correspond to mock-infected cells (Line C), mock-infected cells in the presence of peptides (Line D), SV40-infected cells (Line A), and SV40-infected cells in the presence of peptides (Line B).
For studies of SV40 infection, 7.5×105 HeLa-S3 in 6-well plates were incubated with peptides prior to infection. Cells were infected with a crude preparation of SV40 at MOI of ˜1 and fixed with 4% paraformaldehyde at 48 h.p.i. Samples were stained with FITC-conjugated anti-large T antigen antibody (Pab101) (Santa Cruz, pSC147 FITC), followed by flow cytometry to determine the mean fluorescent intensity of T antigen staining.

A further series concerns authentic HPV16. The series can be described thus: Inhibition of authentic HPV16 in HeLa cells, qRT-PCR for viral mRNA. The conditions noted are these: 14 μM, HPV16 from organotypic raft cultures, qRT-PCR 48 h.p.i. The procedure: To measure the inhibition of infection by authentic HPV16, HeLa cells were infected with 5 μL raft-derived HPV16 (obtained from Craig Meyers, Hershey Medical Center) or with HPV16 PsV in the presence and absence of 14 μM P16/16, and total RNA was isolated 48 h.p.i. by using the RNeasy kit following the manufacturer's instructions. RNA was reverse-transcribed into cDNA by iScript cDNA Synthesis kit. The cDNA was quantified in triplicate by using SYBR Green Supermix real-time PCR detection system and primers for HPV16 E7 or HcRed. Actin mRNA were used for normalization.

For the compound `CC[C@H](C)[C@H](NC(=O)[C@@H](NC(=O)[C@H](Cc1ccc(O)cc1)NC(=O)[C@H](CCC(N)=O)NC(=O)[C@@H]1CCCN1C(=O)[C@H](CO)NC(=O)[C@@H](N)CS)[C@@H](C)O)C(=O)N[C@H](C(=O)N[C@@H](C)C(=O)N[C@@H](CC(=O)O)C(=O)N[C@@H](C)C(=O)NCC(=O)N[C@@H](CC(=O)O)C(=O)N[C@@H](Cc1ccccc1)C(=O)N[C@@H](Cc1ccc(O)cc1)C(=O)N[C@@H](CC(C)C)C(=O)N[C@@H](Cc1c[nH]cn1)C(=O)N1CCC[C@H]1C(=O)N[C@@H](CO)C(=O)N[C@@H](Cc1ccc(O)cc1)C(=O)N[C@@H](Cc1ccc(O)cc1)C(=O)N[C@@H](CCSC)C(=O)N[C@@H](CC(C)C)C(=O)N[C@@H](CCCNC(=N)N)C(=O)N[C@@H](CCCCN)C(=O)N[C@@H](CCCNC(=N)N)C(=O)N[C@@H](CCCNC(=N)N)C(=O)N[C@@H](CCCCN)C(=O)N[C@@H](CCCNC(=N)N)C(=O)O)[C@@H](C)CC` [P16/16], in series [1], the “protrusion of L2 C terminus into the cytoplasm (reconstituted GFP)” value is reported as “did not inhibit protrusion of the C terminus of the L2 protein into the cytoplasm”. Further, in the series with HeLa-S3 cells, the “toxicity (morphology and cell viability assay)” value is “no apparent toxicity”. Also, in the series with HPV5 PsV, the “inhibition of HPV5 PsV infection” value is listed as “potently inhibited infection”. Also, in the series with SV40, the “inhibition of SV40 infection” value was “did not inhibit”. In addition, the “inhibition of authentic HPV16” value with authentic HPV16 was “inhibited”.

Source of the values: US12060388B2, “Cell-penetrating peptides and methods of use thereof” (priority 2018, dated 2024).
